Assay results taken from patent publication US20230106769A1, “SERUM-FREE MEDIUM AND CULTURING METHOD SUITED FOR CULTURING BLOOD CELLS SUCH AS HUMAN HEMATOPOIETIC STEM CELLS” (The University of Tokyo, priority 2020, published 2023).

Assays:
[1] = tested on: human hematopoietic stem cells; assay: Culture of human hematopoietic stem cells with AKTa or PI3Ka; assay type: cell-based; details: 0.3 μM AKTa or 20 μM PI3Ka; PVA, no albumin, SCF 10 ng/mL, TPO 100 ng/mL
Description: Then, human hematopoietic stem cells were cultured in a culture medium supplemented with 0.3 μM AKTa (Sigma-Aldrich, product No. 123871) or 20 μM PI3Ka. Cells were counted after 3, 5, and 7 days of incubation, and the relative cell count at each time point was calculated while the cell count on the first day of incubation was set to 1. In the following Examples, 740Y-P (Provider name: Tocris, product No. 1983) was used as PI3Ka.

[2] = tested on: human bone marrow CD34+ cells or cord blood CD34+ cells; assay: Culture with PI3Ka and TPO or butyzamide, growth rate at day 7; assay type: cell-based; details: 20 μM PI3Ka, 0.1 μM butyzamide vs TPO 100 ng/mL, PVA, no albumin
Description: (§1) In the following Examples, butyzamide was used as a TPO receptor agonist. […] After 7 days, the total number of cells was determined and the number of CD34^+ cells was determined by flow cytometry. Thereafter, the growth rate compared to that at the beginning of the incubation was determined. […] In addition, CD34^+ cells were sorted before and after incubation by using a cell sorter, and 100 cells were seeded into Methocult H4415 for colony assay. After two weeks, each colony was picked under a microscope, a cytospin sample was prepared, and the sample was subjected to Giemsa staining. The type of the colony was then identified under a microscope. GEmM colonies per 50 CD34^+ cells were counted and a rate of increase in the number of colonies compared to before the culture was determined.

[3] = tested on: CD34+ cells; assay: GEmM colony assay (Methocult H4415) after culture with PI3Ka and TPO or butyzamide; assay type: cell-based, human; details: GEmM colonies per 50 CD34+ cells; after 7-day culture; 0.1 μM butyzamide vs TPO
Description: as §1

[4] = tested on: human hematopoietic stem cells; assay: Culture with PI3Ka and/or TPOago in medium without SCF or TPO; assay type: cell-based; details: day 7; 20 μM PI3Ka and/or 0.1 μM TPOago; no SCF, no TPO; PVA
Description: Next, human hematopoietic stem cells were cultured in a medium containing 20 μM PI3Ka and/or 0.1 μM TPOago with reference to a culture medium without SCF or TPO. On day 7 of culture, the number of total cells and the number of CD34^+ cells included were counted by flow cytometry, and the growth rate relative to that at the start of culture was determined.

[5] = tested on: human bone marrow CD34+ cells or cord blood CD34+ cells; details: absence of albumin, presence of PVA; TPO replaced by agonist
Description: In addition, purchased human bone marrow CD34^+ cells (provider name: Lonza, product No. 2C-101) or CD34^+ cells isolated using microbeads from given fresh cord blood were used for culture experiments. the experiments were performed in 24-well plates at 0.2 to 1.0×10^5 cells per well, with TPO removed from the culture medium for human hematopoietic stem cells and replaced by one of the above TPO receptor agonists (hereinafter, sometimes referred to as “TPOago”). The cell count on the seventh day of culture relative to the cell count on the first day of culture was determined.
In addition, purchased human bone marrow CD34^+ cells (provider name: Lonza, product No. 2C-101) or CD34^+ cells isolated using microbeads from given fresh cord blood were used for culture experiments. Experiments were performed in 24-well plates with 0.2 to 1.0×10^5 cells per well, with TPO removed from the culture medium for human hematopoietic stem cells and replaced by one of the above TPO receptor agonists (hereinafter, sometimes referred to as “TPOago”). The cell count on the seventh day of culture relative to the cell count on the first day of culture was determined.

[6] = tested on: Mp132D cells; assay: Replacement of TPO by TPO receptor agonists, Mp132D cells; assay type: cell-based, human; details: 0.1 μM butyzamide, 3 μg/mL eltrombopag, 3 μM avatrombopag; for proliferation in the absence of TPO: in the presence of 0.1% recombinant human serum albumin; for cell proliferative effect in the absence of TPO: in the presence of PVA, absence of albumin
Description: (§2) Next, human hematopoietic stem cells were cultured to examine whether TPO could be replaced by a TPO receptor agonist. Examples of the known TPO receptor agonist include butyzamide, eltrombopag, or avatrombopag. Human hematopoietic stem cells were cultured in a medium containing 0.1 μM butyzamide, 3 μg/mL eltrombopag, or 3 μM avatrombopag in the presence of 0.1% recombinant human serum albumin (Albumin Biosciences) or in the presence of PVA in the above culture medium without TPO. In this experiment, Mp132D cells were used as human hematopoietic stem cells.
as §2, with “TPO receptor agonists include butyzamide,” for “TPO receptor agonist include butyzamide,”

[7] = tested on: CD34+ cells; assay: 14-day culture of CD34+ cells under conditions 1 to 3; assay type: cell-based, human
Description: Further, the growth rate of the total cell count or the CD34^+ cell count was determined by culturing the CD34^+ cells under three conditions: condition 1: cultured for 14 days in the culture medium for human hematopoietic stem cells above, which medium contained 20 μM PI3Ka and 0.1 μM TPOago instead of SCF and TPO (PI3Ka20μM+TPOago0.1μM), condition 2: at day 7 or later, cultured in a medium without butyzamide (Day7—no Buty), and condition 3: cultured for 14 days in a medium (PI3Ka20μM+TPOago0.1μM) further containing UM171 (+UM171). The CD41^+ cell count was determined using a flow cytometer.

[8] = tested on: human bone marrow CD34+ cells or cord blood CD34+ cells; assay: 14-day culture in PI3Ka and TPOago medium with SR-1 and/or UM171; assay type: cell-based
Description: (§3) Prepared was the above culture medium for human hematopoietic stem cells, which medium contained 20 μM PI3Ka and 0.1 μM TPOago instead of SCF and TPO (PI3Ka20μM+TPOago0.1 μM), or which medium contained SR-1 (500 nM) and/or UM171 (35 nM) (+SR-1, +UM171, or +SR-1+UM171). […] The total cell count and the CD34^+ cell count were determined as above on day 14 after the start of culture, and the growth rate relative to that at the start of culture was determined.
as §3, with “(PI3Ka20μM+TPO0.1μM),” for “(PI3Ka20μM+TPOago0.1 μM),”, “(500nM)” for “(500 nM)”

[9] = tested on: human hematopoietic stem cells; assay: Replacement of SCF by PI3Ka, 7-day culture; assay type: cell-based; details: day 7; 20 μM PI3Ka, TPO 100 ng/mL, PVA, no albumin
Description: Next, human hematopoietic stem cells were cultured to examine whether PI3Ka could completely replace SCF. Human hematopoietic stem cells were cultured for 7 days in the above culture medium for human hematopoietic stem cells with 20 μM PI3Ka (S10+PI3Ka20+T100) or in the above culture medium with 20 μM PI3Ka but without SCF (PI3Ka20+T100). The total number of cells and the number of isolated CD34^+ cells as obtained by cell sorting using an anti-CD34 antibody were then determined.

[10] = tested on: Bone marrow cell samples from CML (chronic myelogenous leukemia) patients; assay: Culture of chronic myelogenous leukemia (CML) cells with or without imatinib; assay type: cell-based, human; details: one week; 0.1% PVA, 20 μM PI3Ka, 0.1 μM TPOago
Description: Bone marrow cell samples from CML (chronic myelogenous leukemia) patients were each cultured for one week under albumin-free and cytokine-free culture conditions. The culture medium used was a basal medium containing 0.1% PVA, 20 μM PI3Ka, and 0.1 μM TPOago. The culturing was performed in the presence or absence of an inhibitor (imatinib (IM)) of Bcr-Abl, the gene responsible for CML.

[11] = day 14, condition 2 compared to condition 1, condition 3 (+UM171) compared to condition 1 or 2

CCOC(=O)C1=C(N)Oc2ccc(Cl)cc2C1C(C#N)C(=O)OCC (stereo not drawn) [AKTa]
relative cell count (proliferation) after 3, 5 and 7 days [1]: no proliferative effect

CCCOC(c1cccc(-c2csc(NC(=O)c3cc(Cl)c(C=C(C)C(=O)O)c(Cl)c3)n2)c1OC)C(C)(C)C (stereo not drawn) [butyzamide, 3-[4-[[[4-[2-methoxy-3-(1-tert-butyl-2-oxapentan-1-yl)phenyl]thiazol-2-yl]amino]carbonyl]-2,6-dichlorophenyl]-2-methylpropenoic acid]
growth rate of total cells and CD34+ cells, replacement of TPO [2]: can completely replace TPO
GEmM colony formation potential, replacement of TPO [3]: can completely replace TPO
growth rate (total cells and CD34+ cells) relative to start of culture [4]: no increase in the cell count
cell count on the seventh day relative to the first day (proliferation) [5]: significant cell proliferation
proliferation in the absence of TPO [6]: able to support proliferation
cell proliferative effect in the absence of TPO [6]: marked cell proliferative effect

Cn1nnc(-c2ccc3c(c2)[nH]c2nc(Cc4ccccc4)nc(NC4CCC(N)CC4)c23)n1 (stereo not drawn) [UM171, 4-N-[2-benzyl-7-(2-methyltetrazol-5-yl)-9H-pyrimid[4,5-b]indol-4-yl]cyclohexane-1,4-diamine]
CD34+ cell count / growth rate of CD34+ cells [7, 11]: markedly increased
CD41+ cell count [7, 11]: markedly decreased
differentiation into megakaryocyte progenitors and megakaryocytes ([7]; serum-free medium with PVA, PI3Ka and TPOago): inhibited
growth rate of CD34+ cells, medium containing UM171 vs medium without ([8]; day 14, UM171 35 nM): significantly larger
total cell count and CD34+ cell count ([8]; day 14, UM171 35 nM added to PI3Ka20μM+TPOago0.1μM medium): increased

SCF: stem cell factor, hematopoietic cell growth factor
difference in number of total cells or CD34+ cells with or without SCF [9]: no statistically significant difference

CC1=NN(c2ccc(C)c(C)c2)C(=O)/C1=N\Nc1cccc(-c2cccc(C(=O)O)c2)c1O [eltrombopag]
cell death (cytotoxicity) in hematopoietic stem cells [5]: caused cell death

Cc1ccc(NC(=O)c2ccc(CN3CCN(C)CC3)cc2)cc1Nc1nccc(-c2cccnc2)n1 [IM, imatinib]
cell expansion in the presence of IM [10]: no significant cell expansion

CC(C)n1cnc2c(NCCc3ccc(O)cc3)nc(-c3csc4ccccc34)nc21 [SR-1]
cell death ([8]; SR-1 500 nM in PI3Ka20μM+TPOago0.1μM medium, PVA, no albumin): caused cell death

RQIKIWFQNRRMKWKKSDGGYMDMS [PI3Ka, Tocris, product No. 1983]
difference in number of total cells or CD34+ cells with or without SCF [9]: no significant difference
growth rate (total cells and CD34+ cells) relative to start of culture [4]: no increase in the cell count
relative cell count (proliferation) after 3, 5 and 7 days [1]: marked proliferation

O=C(Nc1nc(-c2cc(Cl)cs2)c(N2CCN(C3CCCCC3)CC2)s1)c1cnc(N2CCC(C(=O)O)CC2)c(Cl)c1 [avatrombopag]
proliferation in the absence of TPO [6]: able to support proliferation
cell proliferative effect in the absence of TPO [6]: small
